Patent US20260258038A1 (priority 2023, published 2026)

Experiments:
Plasmopara viticola = test: whole plant or invertebrate; format: in vivo; details: foliar, read-out: control of Plasmopara viticola (percent disease control compared to untreated)
Pythium ultimum = Pythium ultimum / liquid culture (seedling damping off); format: cell-based; details: Globisporangium ultimum, liquid culture in PDB, 24° C., 2-3 days after application, read-out: control of Pythium ultimum (inhibition of growth, photometric)
Description: Pythium ultimum/Liquid Culture (Seedling Damping Off)
Mycelia fragments and oospores of a newly grown liquid culture of the fungus are directly mixed into nutrient broth (PDB potato dextrose broth). After placing a (DMSO) solution of test compound into a microtiter plate (96-well format), the nutrient broth containing the fungal mycelia/spore mixture is added. The test plates are incubated at 24° C. and the inhibition of growth is determined photometrically 2-3 days after application.

Phytophthora infestans = test: whole plant or invertebrate; format: in vivo; details: in Solanum lycopersicum, foliar, read-out: control of Phytophthora infestans (percent disease control compared to untreated)

COC(=O)Nc1ccc(-c2cnc3c(C)cc(N(C)C(=O)c4ccc(F)cc4F)cn23)cn1 [Compound 54, methyl N-[5-[6-[(2,4-difluorobenzoyl)-methyl-amino]-8-methyl-imidazo[1,2-a]pyridin-3-yl]-2-pyridyl]carbamate]
≥ 80%: pest or weed control at 200 ppm (Plasmopara viticola) | inhibition at 20 ppm (Pythium ultimum) | pest or weed control at 200 ppm (Phytophthora infestans)

COC(=O)Nc1ccc(-c2cnc3c(C)cc(N(C)C(=O)c4ccc(Cl)c(OC)c4)cn23)cn1 [Compound 1, methyl N-[5-[6-[(4-chloro-3-methoxy-benzoyl)-methyl-amino]-8-methyl-imidazo[1,2-a]pyridin-3-yl]-2-pyridyl]carbamate]
≥ 80%: pest or weed control at 200 ppm (Plasmopara viticola) | inhibition at 20 ppm (Pythium ultimum) | pest or weed control at 200 ppm (Phytophthora infestans)

COC(=O)Nc1ccc(-c2cnc3c(C)cc(N(C)C(=O)c4ccc(F)c(C)c4)cn23)cn1 [Compound 11, methyl N-[5-[6-[(4-fluoro-3-methyl-benzoyl)-methyl-amino]-8-methyl-imidazo[1,2-a]pyridin-3-yl]-2-pyridyl]carbamate]
≥ 80%: pest or weed control at 200 ppm (Plasmopara viticola) | inhibition at 20 ppm (Pythium ultimum) | pest or weed control at 200 ppm (Phytophthora infestans)

COC(=O)Nc1ccc(-c2cnc3c(C)cc(N(C)C(=O)c4ccc(C#N)c(OC)c4)cn23)cn1 [Compound 5, methyl N-[5-[6-[(4-cyano-3-methoxy-benzoyl)-methyl-amino]-8-methyl-imidazo[1,2-a]pyridin-3-yl]-2-pyridyl]carbamate]
≥ 80%: pest or weed control at 200 ppm (Plasmopara viticola) | inhibition at 20 ppm (Pythium ultimum) | pest or weed control at 200 ppm (Phytophthora infestans)

COC(=O)Nc1ccc(-c2cnc3ccc(N(C)C(=O)c4ccc(F)c(OC)c4)cn23)cn1 [Compound 26, methyl N-[5-[6-[(4-fluoro-3-methoxy-benzoyl)-methyl-amino]imidazo[1,2-a]pyridin-3-yl]-2-pyridyl]carbamate]
≥ 80%: pest or weed control at 200 ppm (Plasmopara viticola) | inhibition at 20 ppm (Pythium ultimum) | pest or weed control at 200 ppm (Phytophthora infestans)

COC(=O)Nc1ccc(-c2cnc3c(C)cc(N(C)C(=O)c4ccc(Cl)cc4)cn23)cn1 [Compound 49, methyl N-[5-[6-[(4-chlorobenzoyl)-methyl-amino]-8-methyl-imidazo[1,2-a]pyridin-3-yl]-2-pyridyl]carbamate]
≥ 80%: pest or weed control at 200 ppm (Plasmopara viticola) | inhibition at 20 ppm (Pythium ultimum) | pest or weed control at 200 ppm (Phytophthora infestans)

COC(=O)Nc1ccc(-c2cnc3c(C)cc(N(C)C(=O)c4ccc(C#N)cc4)cn23)cn1 [Compound 47, methyl N-[5-[6-[(4-cyanobenzoyl)-methyl-amino]-8-methyl-imidazo[1,2-a]pyridin-3-yl]-2-pyridyl]carbamate]
≥ 80%: pest or weed control at 200 ppm (Plasmopara viticola) | inhibition at 20 ppm (Pythium ultimum) | pest or weed control at 200 ppm (Phytophthora infestans)

COC(=O)Nc1ccc(-c2cnc3c(C)cc(N(C)C(=O)c4ccc(F)c(OC)c4)cn23)cn1 [Compound 13, methyl N-[5-[6-[(4-fluoro-3-methoxy-benzoyl)-methyl-amino]-8-methyl-imidazo[1,2-a]pyridin-3-yl]-2-pyridyl]carbamate]
≥ 80%: pest or weed control at 200 ppm (Plasmopara viticola) | inhibition at 20 ppm (Pythium ultimum) | pest or weed control at 200 ppm (Phytophthora infestans)

COC(=O)Nc1ccc(-c2cnc3c(C)cc(N(C)C(=O)c4ccc(F)c(F)c4)cn23)cn1 [Compound 12, methyl N-[5-[6-[(3,4-difluorobenzoyl)-methyl-amino]-8-methyl-imidazo[1,2-a]pyridin-3-yl]-2-pyridyl]carbamate]
≥ 80%: pest or weed control at 200 ppm (Plasmopara viticola) | inhibition at 20 ppm (Pythium ultimum) | pest or weed control at 200 ppm (Phytophthora infestans)

CCc1cc(N(C)C(=O)c2ccc(F)c(OC)c2)cn2c(-c3ccc(NC(=O)OC)nc3)cnc12 [Compound 57, methyl N-[5-[8-ethyl-6-[(4-fluoro-3-methoxy-benzoyl)-methyl-amino]imidazo[1,2-a]pyridin-3-yl]-2-pyridyl]carbamate]
≥ 80%: pest or weed control at 200 ppm (Plasmopara viticola) | inhibition at 20 ppm (Pythium ultimum) | pest or weed control at 200 ppm (Phytophthora infestans)

COCN(C(=O)c1ccc(F)c(OC)c1)c1ccc2ncc(-c3ccc(NC(=O)OC)nc3)n2c1 [Compound 25, methyl N-[5-[6-[(4-fluoro-3-methoxy-benzoyl)-(methoxymethyl)amino]imidazo[1,2-a]pyridin-3-yl]-2-pyridyl]carbamate]
≥ 80%: pest or weed control at 200 ppm (Plasmopara viticola) | inhibition at 20 ppm (Pythium ultimum) | pest or weed control at 200 ppm (Phytophthora infestans)

COC(=O)Nc1ccc(-c2cnc3c(C#N)cc(N(C)C(=O)c4ccc(F)c(OC)c4)cn23)cn1 [Compound 55, methyl N-[5-[8-cyano-6-[(4-fluoro-3-methoxy-benzoyl)-methyl-amino]imidazo[1,2-a]pyridin-3-yl]-2-pyridyl]carbamate]
≥ 80%: pest or weed control at 200 ppm (Plasmopara viticola) | inhibition at 20 ppm (Pythium ultimum) | pest or weed control at 200 ppm (Phytophthora infestans)
